Patent publication US8273766B2, “Tetrahydroisoquinoline compound” (Kowa Company, Ltd., priority 2007, dated 2012)

Biological target: T1, CCR3 (Cavia porcellus, UniProt Q9Z2I3)
T1 construct: from tissue; host or cells: peritoneal eosinophils of polymyxin B-treated male Hartley guinea pigs (Japan SLC, Inc.)
T1 sequence (Q9Z2I3 1-358): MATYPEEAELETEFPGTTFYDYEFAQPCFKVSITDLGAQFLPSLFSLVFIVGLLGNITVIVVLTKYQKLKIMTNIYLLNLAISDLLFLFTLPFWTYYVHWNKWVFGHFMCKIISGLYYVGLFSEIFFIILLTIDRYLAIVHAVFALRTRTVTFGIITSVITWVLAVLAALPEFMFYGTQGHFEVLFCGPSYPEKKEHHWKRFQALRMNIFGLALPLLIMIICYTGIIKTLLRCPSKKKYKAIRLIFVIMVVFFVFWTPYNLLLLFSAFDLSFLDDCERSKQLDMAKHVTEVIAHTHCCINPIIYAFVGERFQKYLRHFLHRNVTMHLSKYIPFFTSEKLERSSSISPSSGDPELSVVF
Test: CCR3 antagonistic action: eotaxin-induced migration of guinea pig eosinophils (chemotaxis chamber)
Type: cell-based
Conditions: inhibition of migration of guinea pig eosinophils toward guinea pig eotaxin 100 ng/mL; 30 min pretreatment at 37° C., 1 hour reaction
Protocol: Test Example 1 Test of a CCR3 Antagonistic Action
Guinea pig eosinophils were prepared with reference to a literature (Pinkus, Blood. 52 (1978) 127-134). That is, to a six-week old male Hartley guinea pig (Japan SLC, Inc.) was intraperitoneally injected polymyxin B (SIGMA) diluted with PBS (−) at 2 mg per animal once a week. After repeating the same operation four times for 24 hours, the abdominal cavity of each individual under anesthesia with diethyl ether was injected with 50 mL of PBS (−) containing 6 U/mL of heparin and 1 mM EDTA, and the liquid was collected. It was washed with PBS (−) containing 1 mM EDTA, and the cells were suspended in a Percoll solution having a specific density of 1.070 were centrifuged using a discontinuous Percoll gradient liquid to obtain an eosinophilic crude fraction. After washing with PBS (−), they were suspended in RPMI-1640 culture medium (SIGMA) containing 1% FCS, and cultured in a CO2 incubator overnight. Next day, the cells were harvested, a compound to be tested was added to the eosinophils suspended in the RPMI-1640 culture medium containing 0.1% BSA (bovine serum albumin, SIGMA), and then pretreatment was performed by leaving it to stand still at 37° C. for 30 minutes. A mixed liquid of guinea pig eotaxin (Chemical Synthesis Services) and the compound to be tested that had been prepared to be at a final concentration of 100 ng/mL was added into a lower chamber of 96-well chemotaxis chambers (Neuroprobe), and then a mixed liquid of 12.0×10^5 eosinophils per well and the compound to be tested was sequentially set in an upper chamber of a polycarbonate filter (Neuroprobe) having a pore size of 5 μm after completion of the treatment with polyvinyl pyrrolidone (PVP), and allowed to undergo a reaction in a CO2 incubator for 1 hour. After completion of the reaction, the filter was taken out, the cells were stained in a Diff-Quik stain kit (International Reagents Co., Ltd.), and the migrated eosinophils were microscopically counted. Five fields of view per well were counted, and an average value of the counts was taken as a count of migrated eosinophils.

Row | SMILES | IC50
1 | Fc1ccc(CC2Cc3ccccc3CN2CCNCc2ccncc2)cc1 (stereo not drawn) [Example 171, N-(pyridin-4-yl)methyl-2-[3-(4-fluorobenzyl)-3,4-dihydroisoquinolin-2(1H)-yl]ethanamine] | 14 nM
2 | Fc1ccc(CC2Cc3cc(F)ccc3CN2CCNCc2ccncc2)cc1 (stereo not drawn) [Example 180, N-(pyridin-4-yl)methyl-2-[6-fluoro-3-(4-fluorobenzyl)-3,4-dihydroisoquinolin-2(1H)-yl]ethanamine] | 2 nM
3 | CC(C)Nc1ccc(CNCCN2Cc3ccc(F)cc3CC2Cc2ccc(F)cc2)cc1 (stereo not drawn) [Example 138, 4-[[2-[6-fluoro-3-(4-fluorobenzyl)-3,4-dihydroisoquinolin-2(1H)-yl]ethylamino]methyl]-N-isopropylaniline] | 4 nM
4 | CS(=O)(=O)Nc1cccc(CNCCN2Cc3ccc(F)cc3CC2Cc2ccc(F)cc2)c1 (stereo not drawn) [Example 126, N-[3-(methanesulfonylamino)benzyl]-2-[6-fluoro-3-(4-fluorobenzyl)-3,4-dihydroisoquinolin-2(1H)-yl]ethanamine] | 1 nM
5 | CCNc1ccc(CNCCN2Cc3ccc(F)cc3CC2Cc2ccc(F)cc2)cc1 (stereo not drawn) [Example 139, 4-[[2-[6-fluoro-3-(4-fluorobenzyl)-3,4-dihydroisoquinolin-2(1H)-yl]ethylamino]methyl]-N-ethylaniline] | 40 nM
6 | CC(C)(O)c1ccc(CNCCN2Cc3ccc(F)cc3CC2Cc2ccc(F)cc2)cc1 (stereo not drawn) [Example 154, N-[4-(1-hydroxy-1-methylethyl)benzyl]-2-[6-fluoro-3-(4-fluorobenzyl)-3,4-dihydroisoquinolin-2(1H)-yl]ethanamine] | 20 nM
7 | COCCNc1ccc(CNCCN2Cc3ccc(F)cc3CC2Cc2ccc(F)cc2)cc1 (stereo not drawn) [Example 150, 4-[[2-[6-fluoro-3-(4-fluorobenzyl)-3,4-dihydroisoquinolin-2(1H)-yl]ethylamino]methyl]-N-(2-methoxyethyl)aniline] | 4 nM
8 | CC(=O)c1cccc(CNCCN2Cc3ccccc3CC2Cc2ccc(F)cc2)c1 (stereo not drawn) [Example 106, N-(3-acetylbenzyl)-2-[3-(4-fluorobenzyl)-3,4-dihydroisoquinolin-2(1H)-yl]ethanamine] | 7 nM
9 | CC(C)Nc1ccc(CNCCN2Cc3cc(F)ccc3CC2Cc2ccc(F)cc2)cc1 (stereo not drawn) [Example 161, 4-[[2-[7-fluoro-3-(4-fluorobenzyl)-3,4-dihydroisoquinolin-2(1H)-yl]ethylamino]methyl]-N-isopropylaniline] | 25 nM
10 | CS(=O)(=O)Nc1cccc(CNCCN2Cc3ccc(F)cc3CC2Cc2ccc(Cl)cc2)c1 (stereo not drawn) [Example 157, N-(3-methanesulfonylaminobenzyl)-2-[3-(4-chlorobenzyl)-6-fluoro-3,4-dihydroisoquinolin-2(1H)-yl]ethanamine] | 25 nM
11 | CC(C)(C)c1ccc(CNCCN2Cc3ccccc3CC2Cc2ccc(F)cc2)cc1 (stereo not drawn) [Example 96, N-(4-tert-butylbenzyl)-2-[3-(4-fluorobenzyl)-3,4-dihydroisoquinolin-2(1H)-yl]ethanamine] | 30 nM
12 | CC(C)(C)c1ccc(CNCCN2Cc3ccc(F)cc3CC2Cc2ccc(Cl)cc2)cc1 (stereo not drawn) [Example 156, N-(4-tert-butylbenzyl)-2-[3-(4-chlorobenzyl)-6-fluoro-3,4-dihydroisoquinolin-2(1H)-yl]ethanamine] | 80 nM
